The test system of one assay is 5-HT receptors. Briefly: 5-HT concentration-response curve in antral circular muscle strips. As to conditions: 5-HT contraction. The format is cell-based, rat.
Assay [1] deals with circular muscle strips from the gastric antrum. Put plainly: Contractile responses to EFS of enteric nerves in antral muscle strips of pretreated indomethacin rats. In kind it is in vivo, rat. As to conditions: for Regression Analysis Slope: linear regression of EFS (0.5 ms, 1-15 Hz) frequency-response, indomethacin-treated rats, mean ± SEM, 5-6 rats per group.
Assay [2] deals with rat model of indomethacin-induced gastric mucosal ulceration. Put plainly: Indomethacin-induced gastric mucosal ulceration (ulceration index). The format is in vivo. The settings on record: rats; tegaserod 1 mg/kg, omeprazole 20 mg/kg i.p. b.i.d. one day before and 30 min prior to indomethacin 50 mg/kg intragastric; 6 h post-indomethacin; vs vehicle. The protocol:
Male Sprague-Dawley rats (Charles River, Laboratories, Wilmington, Mass.) weighing 250-300 g were housed two in a cage at standard conditions (21-23° C., controlled humidity, 12 hour light/dark cycle). The animals were allowed to acclimate for one week prior to initiation of drug treatment. The experimental procedures were approved by the Animal Care and Use Committees at the V.A. Medical Center and the University of Oklahoma Health Science Center, Oklahoma City, Okla.
(§1) Prior to the experiment the rats were fasted overnight with free access to water. On the day of experiment the rats received intragastric gavage of 50 mg/kg indomethacin dissolved in 2% NaCO3 and brought to a volume of 1.5 mL in saline (pH 6.8). Indomethacin was given at 7:30 A.M. and the animals were then placed in their home cage with free access to food and water. The rats were euthanized 6 h post-indomethacin infusion, the stomach was isolated and placed in Ca^2+-free Krebs buffer aerated with 95% O2 and 5% CO2.
Drugs were prepared fresh for each experiment and stored at 4° C. between treatments. […]
(§2) The stomach was cut along the small curvature, cleansed of ingested food and the fundus was separated from the glandular portion of the stomach. […] The total length of hemorrhagic lesions, which were approximately 1 mm wide, was measured and served as an index of ulceration. […]

In assay [3] the test system is myeloperoxidase (MPO) activity. Briefly: Mucosal myeloperoxidase activity after indomethacin. In kind it is in vivo, rat. As to conditions: rats; tegaserod 1 mg/kg, omeprazole 20 mg/kg i.p. pretreatment; glandular stomach 6 h after indomethacin 50 mg/kg. How it is done:
as §1
Drugs were prepared fresh for each experiment and stored at 4° C. between treatments. […] A separate control group received treatment with propylene glycol only. […]
as §2
Following dissection, the mucosal tissue was snap-frozen in liquid nitrogen and stored at −80° C. and MPO activity was assayed simultaneously. […] MPO activity was expressed as equivalent to the activity of the relative standard (ng of HRP) converting the same amount of TMB substrate for 10 min at room temperature. […]

The test system of assay [4] is circular muscle strips from the gastric antrum. Briefly: Contractile response to KCl (80 mM) in antral circular muscle strips of pretreated indomethacin rats. The format is in vivo, rat. As to conditions: strips from indomethacin-treated rats pretreated with tegaserod 1 mg/kg, omeprazole 20 mg/kg, vs vehicle.
Assay [5] has the same test system. Briefly: Contractile responses to carbachol in antral circular muscle strips of pretreated indomethacin rats. The format is in vivo, rat. The settings on record: strips from indomethacin-treated rats pretreated with tegaserod 1 mg/kg, omeprazole 20 mg/kg; vs vehicle.
Assay [6] has the same test system. Briefly: Contractile responses to 5-HT in antral circular muscle strips of pretreated indomethacin rats. The format is in vivo, rat. As to conditions: strips from indomethacin-treated rats pretreated with tegaserod 1 mg/kg, omeprazole 20 mg/kg; vs vehicle.
For assay [7], the system named is smooth muscle muscarinic receptors. Briefly: Carbachol concentration-response curve in antral circular muscle strips. The format is cell-based, rat. The settings on record: carbachol contraction.
The subject of another assay is enteric nerves. The format is cell-based, rat.
[8] abbreviates: second group not named in the sentence (indomethacin-treated rats receiving vehicle).
[9] abbreviates: EFS 0.5 ms, 1-15 Hz, strips from indomethacin-treated rats pretreated with tegaserod 1 mg/kg, omeprazole 20 mg/kg.
Setting [10] is: strips from vehicle pretreated rats receiving indomethacin.

From US20090163551A1, “Compositions and Methods for Treating Diseases” (Novartis AG, priority 2006, published 2009) come the findings set out here.

SMILES strings stand for the structures. Entries after “also recorded” stand apart in the source; their conditions may differ. Where a name gives a salt, the structure may show the parent alone.

In the case of `NCCc1c[nH]c2ccc(O)cc12` [5-HT, 5-hydroxytryptamine creatinine sulfate], in the assay on 5-HT receptors (setting [8]), the Hill slope is 0.65 and the “log EC50” value stood at 6.839. In the assay with 5-HT receptors (strips from naïve rats), the Hill slope was 0.48 and the “log EC50” value turned out to be 6.299.
In the case of `COc1ccc2[nH]c([S+]([O-])Cc3ncc(C)c(OC)c3C)nc2c1` (stereo not drawn) [Omeprazole, omeprazole], in assay [1], the “Regression Analysis Slope” value is reported as 78.8 ± 9.5.
Turning to `CCCCCNC(=N)NN=Cc1c[nH]c2ccc(OC)cc12` [Tegaserod, 3-(5-methoxy-1H-indol-3-ylmethylene)-N-pentylcarbazimidamide], the “formation of gastric lesions (ulceration index)” value in assay [2] is on record as “reduced gastric ulceration; also recorded: significantly reduced the formation of gastric lesions”. Further, the “mucosal MPO activity” value in assay [3] is “reduced gastric ulceration and mucosal inflammation; also recorded: inhibited MPO activity to levels that were not significantly different from those in naïve animals”. For the same molecule, the “amplitude of KCl-induced contractions” value in assay [4] is reported as “showed a tendency to prevent the development of hypercontractile responses to KCl, however in the effect of neither of the drugs reached statistical significance”. Besides, in assay [5], the maximal carbachol-induced contraction result is given as “not significantly different”. For the same molecule, the “amplitude of the maximal response to 5-HT” value in [6] is on record as “significant reduction”. Also, in assay [1] (setting [9]), the “increase of contractile responses to EFS” value is reported as “prevented the increase of contractile responses to EFS” and the “linear frequency-response relationship of EFS contractile responses” value is reported as “preserved the linear frequency-response relationship; also recorded: protected the linear increase in the amplitude of contractile responses”. Moreover, the “Indomethacin-induced hypercontractility (KCl, carbachol, 5-HT, EFS; overall statement)” value in assay [1] (antral circular muscle strips, tegaserod 1 mg/kg, omeprazole 20 mg/kg pretreatment) is on record as “significantly attenuated”. For the same molecule, in [1], the “Regression Analysis Slope” value amounted to 51.9 ± 5.1.
Molecule `C[N+](C)(C)CCOC(N)=O.[Cl-]` [carbachol, carbamylcholine chloride] registered a Hill slope in [7] (strips from naïve rats) of 1.07. In assay [7] (setting [10]), the Hill slope stood at 1.11 and the “log EC50” value is listed as −7.32.
For `NC1=N[C@H](O)[C@H]2[C@H]3O[C@]4(O)O[C@@H]([C@@H](O)[C@@]2(N1)[C@@H]4O)[C@]3(O)CO` [tetrodotoxin], the “inhibitory and excitatory responses to EFS” value with enteric nerves is “abolished”.

As usually defined, the Hill slope is a measure of the steepness of the concentration-response curve.
